Measurements taken from ChEMBL document CHEMBL1149464, “Structure-guided synthesis of tamoxifen analogs with improved selectivity for the orphan ERRgamma” (Bioorg Med Chem Lett, 2006).

How the values were obtained:
[1] = molecular target: T1, Estrogen-related receptor gamma (Homo sapiens, UniProt P62508)
T1 sequence (P62508 whole entry): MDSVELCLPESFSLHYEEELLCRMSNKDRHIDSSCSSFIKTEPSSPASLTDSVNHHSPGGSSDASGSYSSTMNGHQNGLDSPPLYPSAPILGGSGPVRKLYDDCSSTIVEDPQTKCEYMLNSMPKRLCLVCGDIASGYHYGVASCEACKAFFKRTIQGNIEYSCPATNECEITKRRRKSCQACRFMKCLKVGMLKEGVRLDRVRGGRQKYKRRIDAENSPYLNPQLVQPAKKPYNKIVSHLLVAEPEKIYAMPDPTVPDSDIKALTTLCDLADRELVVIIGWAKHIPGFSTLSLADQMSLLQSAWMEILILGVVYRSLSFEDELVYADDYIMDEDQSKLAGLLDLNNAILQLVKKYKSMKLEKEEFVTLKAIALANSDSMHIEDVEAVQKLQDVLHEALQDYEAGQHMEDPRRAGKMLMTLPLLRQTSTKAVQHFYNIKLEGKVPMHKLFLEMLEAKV

[2] = molecular target: T1, Estrogen-related receptor gamma; test: Displacement of [3H]4-OHT from ERRgamma at 3 uM
[3] = species: Homo sapiens; test: Selectivity for ERRgamma over ERalpha relative to 4-hydroxytamoxifen
[4] = molecular target: T2, Estrogen receptor (Homo sapiens, UniProt P03372)
T2 sequence (P03372 whole entry): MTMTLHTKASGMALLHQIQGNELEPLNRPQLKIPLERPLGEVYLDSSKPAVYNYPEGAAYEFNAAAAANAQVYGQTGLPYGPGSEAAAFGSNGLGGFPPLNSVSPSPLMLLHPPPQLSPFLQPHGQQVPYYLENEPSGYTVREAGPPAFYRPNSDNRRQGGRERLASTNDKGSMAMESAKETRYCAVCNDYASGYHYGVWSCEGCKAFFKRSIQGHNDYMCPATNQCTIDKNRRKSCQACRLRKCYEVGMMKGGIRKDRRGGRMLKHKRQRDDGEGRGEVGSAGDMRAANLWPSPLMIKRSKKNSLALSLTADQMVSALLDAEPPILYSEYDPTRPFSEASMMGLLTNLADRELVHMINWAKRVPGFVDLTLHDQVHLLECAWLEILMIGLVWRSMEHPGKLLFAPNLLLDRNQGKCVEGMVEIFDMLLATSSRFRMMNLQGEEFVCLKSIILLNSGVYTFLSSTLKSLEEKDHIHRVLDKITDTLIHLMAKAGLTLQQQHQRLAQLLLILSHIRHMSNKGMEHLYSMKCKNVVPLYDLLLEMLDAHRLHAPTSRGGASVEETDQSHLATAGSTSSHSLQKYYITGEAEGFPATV

| IC50 [1] [nM] | SMILES | IC50 [2] | also measured |
| --- | --- | --- | --- |
| 200 | CN(C)CCOc1ccc(/C(=C(/CCCC#N)c2ccccc2)c2ccc(O)cc2)cc1 |  |  |
| 790 | CN(C)CCOc1ccc(/C(=C(/CCCCO)c2ccccc2)c2ccc(O)cc2)cc1 |  |  |
| 160 | CN(C)CCOc1ccc(/C(=C(/CCCN=[N+]=[N-])c2ccccc2)c2ccc(O)cc2)cc1 |  |  |
| 130 | CN(C)CCOc1ccc(/C(=C(/CCCCl)c2ccccc2)c2ccc(O)cc2)cc1 |  |  |
| 1000 | CSCCC/C(=C(\c1ccc(O)cc1)c1ccc(OCCN(C)C)cc1)c1ccccc1 |  |  |
| 5 | CN(C)CCOc1ccc(/C(=C(/CCN=[N+]=[N-])c2ccccc2)c2ccc(O)cc2)cc1 |  | Ratio IC50 [3]: 1.6; IC50 [4]: 1 nM |
| 13 | CN(C)CCOc1ccc(/C(=C(/CCCl)c2ccccc2)c2ccc(O)cc2)cc1 [4-HYDROXYTORMIFENE] |  |  |

More lines, now with the values behind:

| SMILES | IC50 [1] [nM] | IC50 [2] | also measured |
| --- | --- | --- | --- |
| CN(C)CCOc1ccc(/C(=C(/CCC#N)c2ccccc2)c2ccc(O)cc2)cc1 | 1300 |  |  |
| CN(C)CCOc1ccc(/C(=C(/CCCC(=O)O)c2ccccc2)c2ccc(O)cc2)cc1 |  | Not Active |  |
| CNCCC/C(=C(\c1ccc(O)cc1)c1ccc(OCCN(C)C)cc1)c1ccccc1 |  | Not Active |  |
| CC(=O)NCCC/C(=C(\c1ccc(O)cc1)c1ccc(OCCN(C)C)cc1)c1ccccc1 |  | Not Active |  |
| CN(C)CCC/C(=C(\c1ccc(O)cc1)c1ccc(OCCN(C)C)cc1)c1ccccc1 |  | Not Active |  |
